Experiments:
Human Axl = Human Axl (Homo sapiens (Human), UniProt P30530, Q764R); assay: Human AXL kinase assay (33P radiometric, KinaseProfiler); assay type: biochemical; conditions: 10 μM ATP
Protocol: Kinase activity and compound inhibition were investigated using the ^33P-Phosphoryl transfer radiometric kinase assay, performed using the KinaseProfiler™ service of Eurofins Pharma Discovery Services UK Limited. Dose-response experiments were performed using nine compound concentrations in a 96-well microtiter plate. For each assay, all compounds were prepared to a 50× final assay concentration (50 μM) in 100% DMSO, then diluted in a half-log series, with the final top concentration at 1 μM. This working stock of the compound was added to the assay well as the first component in the reaction, followed by the remaining components as detailed in the following assay protocols below. The positive control wells (100% kinase activity) contain all components of the reaction including 2% DMSO (control for solvent effects), except the compound of interest. Blank wells contain all components of the reaction, with the reference inhibitor, staurosporine. This reference compound was used to abolish kinase activity and generated the 0% kinase activity base-line. IC50 values were calculated by nonlinear regression analysis using the sigmoidal dose-response (variable slope) curve fit on XLFit version 5.3 (ID Business Solutions).
Human Axl (residues H473-A894 with Q764R, 161 nM) was incubated with 8 mM MOPS pH 7.0, 0.2 mM EDTA, 250 μM KKSRGDYMTMQIG (SEQ ID NO. 43), 10 mM magnesium acetate and 10 μM [γ-33P-ATP]. The reaction was initiated by the addition of the Mg/ATP mix. After incubation for 40 minutes at room temperature, the reaction was stopped by the addition of phosphoric acid to a concentration of 0.5%. A reaction aliquot of 10 μL was then spotted onto a P30 filtermat and washed four times for 4 minutes in 0.425% phosphoric acid and once in methanol prior to drying and scintillation counting. Incorporated ^33P was measured using the Wallac Microbeta scintillation counter (Perkin Elmer).

KDR = KDR (Homo sapiens (Human), UniProt P35968); assay: KDR autophosphorylation ELISA in HUVEC cells; assay type: cell-based; conditions: cellular, VEGF165-stimulated, phospho-KDR ELISA
KDR, sequence (P35968 20-1356): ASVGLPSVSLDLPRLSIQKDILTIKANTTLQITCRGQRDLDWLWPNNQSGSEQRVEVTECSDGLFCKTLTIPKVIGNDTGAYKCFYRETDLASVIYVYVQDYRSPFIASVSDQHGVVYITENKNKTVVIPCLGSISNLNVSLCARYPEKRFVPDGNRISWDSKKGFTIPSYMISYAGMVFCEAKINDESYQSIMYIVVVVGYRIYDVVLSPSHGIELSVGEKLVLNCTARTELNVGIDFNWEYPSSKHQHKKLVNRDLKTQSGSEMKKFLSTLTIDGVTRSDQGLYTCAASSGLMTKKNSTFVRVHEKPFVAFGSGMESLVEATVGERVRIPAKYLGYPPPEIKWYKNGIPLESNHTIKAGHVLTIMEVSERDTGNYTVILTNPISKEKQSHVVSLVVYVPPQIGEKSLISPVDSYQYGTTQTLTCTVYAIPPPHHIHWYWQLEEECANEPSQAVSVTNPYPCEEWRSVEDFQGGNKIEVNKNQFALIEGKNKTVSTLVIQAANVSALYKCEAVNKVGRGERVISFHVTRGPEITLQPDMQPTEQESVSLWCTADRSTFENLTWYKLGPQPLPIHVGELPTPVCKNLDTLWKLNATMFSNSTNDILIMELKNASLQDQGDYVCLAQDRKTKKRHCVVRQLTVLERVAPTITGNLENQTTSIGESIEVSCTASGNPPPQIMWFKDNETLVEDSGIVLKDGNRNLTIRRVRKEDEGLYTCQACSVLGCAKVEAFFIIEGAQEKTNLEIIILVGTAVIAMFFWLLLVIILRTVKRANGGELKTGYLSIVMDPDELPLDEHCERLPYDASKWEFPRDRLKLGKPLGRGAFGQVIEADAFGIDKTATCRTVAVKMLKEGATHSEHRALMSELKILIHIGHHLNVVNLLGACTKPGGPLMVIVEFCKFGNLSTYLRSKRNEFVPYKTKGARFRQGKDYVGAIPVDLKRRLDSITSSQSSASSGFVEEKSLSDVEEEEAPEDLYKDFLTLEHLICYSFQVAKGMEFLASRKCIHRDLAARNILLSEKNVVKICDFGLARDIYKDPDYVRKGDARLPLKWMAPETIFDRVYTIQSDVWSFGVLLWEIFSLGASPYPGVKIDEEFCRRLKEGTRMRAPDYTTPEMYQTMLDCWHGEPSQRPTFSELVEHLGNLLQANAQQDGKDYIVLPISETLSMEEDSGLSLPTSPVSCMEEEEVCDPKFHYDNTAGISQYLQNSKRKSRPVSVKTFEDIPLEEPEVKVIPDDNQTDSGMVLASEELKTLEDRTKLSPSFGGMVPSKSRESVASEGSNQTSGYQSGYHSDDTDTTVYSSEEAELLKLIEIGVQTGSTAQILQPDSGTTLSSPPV
How it was run: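 HUVECs grown 24 h at 37 °C, then serum-starved 24 h, were preincubated 1 h with an 8-point compound series (0.3% DMSO) and stimulated with 100 ng/mL human VEGF165 for 5 min. Phospho-KDR in lysates was measured by sandwich ELISA against a phospho-KDR standard; IC50 from 4-parameter logistic fit.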

Mer = Mer (Homo sapiens (Human), UniProt Q12866); assay: Mer autophosphorylation ELISA in transient transfected 293A cells; assay type: cell-based; conditions: cellular, MERTK-transfected 293A cells, phospho-Mer ELISA
Mer, sequence (Q12866 21-999): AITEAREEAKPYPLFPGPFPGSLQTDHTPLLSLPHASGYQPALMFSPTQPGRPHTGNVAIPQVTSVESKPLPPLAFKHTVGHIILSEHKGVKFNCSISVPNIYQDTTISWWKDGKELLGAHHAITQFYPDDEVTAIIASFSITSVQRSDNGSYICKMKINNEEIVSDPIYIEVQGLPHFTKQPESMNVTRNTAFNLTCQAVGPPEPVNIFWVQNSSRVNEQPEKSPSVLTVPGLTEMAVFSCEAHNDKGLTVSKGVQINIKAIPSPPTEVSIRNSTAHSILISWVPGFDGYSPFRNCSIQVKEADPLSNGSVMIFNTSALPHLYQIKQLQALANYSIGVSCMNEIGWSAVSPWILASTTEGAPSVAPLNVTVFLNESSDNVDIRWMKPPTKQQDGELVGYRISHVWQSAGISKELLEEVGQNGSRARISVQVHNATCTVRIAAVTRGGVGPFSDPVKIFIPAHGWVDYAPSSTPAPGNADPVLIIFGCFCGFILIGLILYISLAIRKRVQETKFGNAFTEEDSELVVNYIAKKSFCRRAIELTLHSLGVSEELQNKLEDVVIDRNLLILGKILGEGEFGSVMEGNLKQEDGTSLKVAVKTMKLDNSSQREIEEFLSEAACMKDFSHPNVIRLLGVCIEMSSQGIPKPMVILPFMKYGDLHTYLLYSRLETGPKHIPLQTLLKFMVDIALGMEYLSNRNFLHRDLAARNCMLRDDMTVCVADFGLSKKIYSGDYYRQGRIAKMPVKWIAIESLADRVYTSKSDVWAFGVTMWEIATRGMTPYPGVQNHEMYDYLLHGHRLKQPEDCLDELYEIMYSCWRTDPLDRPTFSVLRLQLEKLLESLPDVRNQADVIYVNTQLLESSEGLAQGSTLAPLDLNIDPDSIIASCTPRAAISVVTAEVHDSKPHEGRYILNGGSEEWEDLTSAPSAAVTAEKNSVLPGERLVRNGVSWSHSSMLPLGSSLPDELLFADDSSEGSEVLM
Protocol: 293A cells (Thermo Fisher #R70507) were seeded at 1.5×10^6 cells/well onto 100 mm dish (Greiner #664169), in DMEM (Thermo Fisher #11995-040) containing 10% FBS (Thermo Fisher #26140-079), 1% MEM NEAA (Thermo Fisher #11140-050), 1% GlutaMax (Thermo Fisher #35050-061), and 1% Penicillin Streptomycin (Thermo Fisher #15140-122). 293A cells were incubated at 37° C., 5% CO2 for 24 h and then transfected with 6 μg MERTK DNA (Genecopoeia #EX-Z8208-M02) using TransIT LT1 transfection reagent (Mirus-Bio #MIR2305). After 24 h incubation, the transfected 293A cells were seeded at 1×10^5 cells/well onto 96-well plates (Corning #3904) in DMEM growth medium overnight. Test compounds were serially diluted to produce an 8-point dose curve in fresh serum-free medium to a final concentration of 0.3% DMSO (vehicle) and added to the cells and incubated for 1 h. Cells were then immediately lysed with 150 μL of cold 1× lysis buffer [20 mM Tris, 137 mM sodium chloride, 2 mM EDTA, 10% glycerol, 1% NP-40 alternative, 1 mM activated sodium orthovanadate, 1 mM PefaBloc SC (Sigma-Aldrich #11429868001), protease/phosphatase inhibitor tablet (Thermo Fisher #A32959)]. Lysates were clarified by centrifugation and 50 μL/well added into the human phospho-Mer DuoSet IC ELISA (R&D Systems #DYC2579-2). Assay was performed according to manufacturer's instructions and sample phospho-Mer concentrations were extrapolated using human phospho-Mer control (R&D Systems #841793) as a standard. Positive control wells (100% activity) contained DMSO-treated cell lysates. Negative control wells (0% activity) contained reference inhibitor-treated cell lysates. IC50 values were calculated by nonlinear regression analysis using a 4-parameter logistic curve fit in ActivityBase XE (IDBS).

Human Axl, sequence (P30530 473-894 Q764R): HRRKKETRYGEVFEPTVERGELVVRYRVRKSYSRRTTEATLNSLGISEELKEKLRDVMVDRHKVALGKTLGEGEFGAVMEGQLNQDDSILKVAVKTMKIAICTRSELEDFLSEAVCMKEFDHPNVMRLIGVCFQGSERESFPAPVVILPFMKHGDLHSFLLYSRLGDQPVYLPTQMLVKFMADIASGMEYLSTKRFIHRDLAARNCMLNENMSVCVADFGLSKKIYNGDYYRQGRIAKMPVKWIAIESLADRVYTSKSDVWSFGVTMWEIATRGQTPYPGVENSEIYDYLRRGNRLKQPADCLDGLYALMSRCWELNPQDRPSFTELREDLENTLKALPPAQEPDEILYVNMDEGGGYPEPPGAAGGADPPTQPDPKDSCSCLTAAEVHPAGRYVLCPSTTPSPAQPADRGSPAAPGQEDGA

IC50 (Human Axl) [nM] | IC50 (KDR) [nM] | IC50 (Mer) [nM] | SMILES
≤ 10 | 10 to 100 | – | COC(=O)c1cc2c(Oc3ccc(NC(=O)C4(C(=O)Nc5ccc(F)cc5)CC4)cn3)ccnc2cc1OC [Compound 10, Methyl 4-[5-[[1-[(4-fluorophenyl)carbamoyl]cyclopropanecarbonyl]-amino]pyridin-2-yl]oxy-7-methoxyquinoline-6-carboxylate]
10 to 100 | 10 to 100 | – | CNC(=O)c1cc2c(Oc3ccc(NC(=O)C4(C(=O)Nc5ccc(F)cc5)CC4)cn3)ccnc2cc1OC [Compound 17, 1-N-(4-Fluorophenyl)-1-N′-[6-[7-methoxy-6-(methylcarbamoyl)quinolin-4-yl]oxypyridin-3-yl]cyclopropane-1,1-dicarboxamide]
≤ 10 | > 300 | 10 to 100 | COc1cc2nccc(Oc3ncc(NC(=O)C4(C(=O)Nc5ccc(F)cc5)CC4)cc3F)c2nc1OC [Compound 82, 1-N′-[6-[(6,7-Dimethoxy-1,5-naphthyridin-4-yl)oxy]-5-fluoropyridin-3-yl]-1-N-(4-fluorophenyl)cyclopropane-1,1-dicarboxamide]
≤ 10 | > 300 | 10 to 100 | COc1cc2nccc(Oc3ncc(NC(=O)C4(C(=O)Nc5ccc(F)cc5)CC4)cc3Cl)c2cc1C(N)=O [Compound 18, 1-N′-[6-(6-Carbamoyl-7-methoxyquinolin-4-yl)oxy-5-chloropyridin-3-yl]-1-N-(4-fluorophenyl)cyclopropane-1,1-dicarboxamide]
≤ 10 | 100 to 300 | 10 to 100 | COc1cc2nccc(Oc3ccc(NC(=O)C4(C(=O)Nc5ccc(F)cc5)CC4)cn3)c2cc1-c1cn[nH]c1 [Compound 60, 1-N-(4-Fluorophenyl)-1-N′-[6-[7-methoxy-6-(1H-pyrazol-4-yl)quinolin-4-yl]oxypyridin-3-yl]cyclopropane-1,1-dicarboxamide]
≤ 10 | > 300 | 10 to 100 | COC(=O)c1cc2c(Oc3ncc(NC(=O)C4(C(=O)Nc5ccc(F)cc5)CC4)cc3Cl)ccnc2cc1OC [Compound 11, Methyl 4-[3-chloro-5-[[1-[(4-fluorophenyl)carbamoyl]cyclopropanecarbonyl]-amino]pyridin-2-yl]oxy-7-methoxyquinoline-6-carboxylate]
10 to 100 | > 300 | 100 to 300 | COc1cc2nccc(Oc3ncc(NC(=O)C4(C(=O)Nc5ccc(F)cc5)CC4)cc3Cl)c2nc1OC [Compound 80, 1-N′-[5-Chloro-6-[(6,7-dimethoxy-1,5-naphthyridin-4-yl)oxy]pyridin-3-yl]-1-N-(4-fluorophenyl)cyclopropane-1,1-dicarboxamide]
10 to 100 | > 300 | – | COc1cc2nccc(Oc3ccc(NC(=O)C4(C(=O)Nc5ccc(F)cc5)CC4)cn3)c2nc1OC [Compound 81, 1-N′-[6-[(6,7-Dimethoxy-1,5-naphthyridin-4-yl)oxy]pyridin-3-yl]-1-N-(4-fluorophenyl)cyclopropane-1,1-dicarboxamide]
10 to 100 | 10 to 100 | – | COc1cc2nccc(Oc3ccc(NC(=O)C4(C(=O)Nc5ccc(F)cc5)CC4)cn3)c2cc1C(N)=O [Compound 16, 1-N′-[6-(6-Carbamoyl-7-methoxyquinolin-4-yl)oxypyridin-3-yl]-1-N-(4-fluorophenyl)-cyclopropane-1,1-dicarboxamide]

From patent publication US11673897B2, “Compounds for the treatment of kinase-dependent disorders” (Exelixis, Inc., priority 2018, dated 2023)
